Data: PMC5407767, “Characterization and expression analysis of Galnts in developing Strongylocentrotus purpuratus embryos” (PLoS ONE, 2017)

Molecular target: SpGalNAc-T2 (Strongylocentrotus purpuratus, UniProt A0A7M7T5A5)
Assay: GalNAc transfer to peptide acceptors, radioactivity (dpm/3hr)
Assay type: biochemical
Conditions: acceptor peptides EA2, MUC5AC, MUC5AC-3, MUC5AC-13, MUC5AC-3/-13, SpDelta, SpNotch, 37°C, donor not given

Sequence of SpGalNAc-T2 (A0A7M7T5A5 37-564): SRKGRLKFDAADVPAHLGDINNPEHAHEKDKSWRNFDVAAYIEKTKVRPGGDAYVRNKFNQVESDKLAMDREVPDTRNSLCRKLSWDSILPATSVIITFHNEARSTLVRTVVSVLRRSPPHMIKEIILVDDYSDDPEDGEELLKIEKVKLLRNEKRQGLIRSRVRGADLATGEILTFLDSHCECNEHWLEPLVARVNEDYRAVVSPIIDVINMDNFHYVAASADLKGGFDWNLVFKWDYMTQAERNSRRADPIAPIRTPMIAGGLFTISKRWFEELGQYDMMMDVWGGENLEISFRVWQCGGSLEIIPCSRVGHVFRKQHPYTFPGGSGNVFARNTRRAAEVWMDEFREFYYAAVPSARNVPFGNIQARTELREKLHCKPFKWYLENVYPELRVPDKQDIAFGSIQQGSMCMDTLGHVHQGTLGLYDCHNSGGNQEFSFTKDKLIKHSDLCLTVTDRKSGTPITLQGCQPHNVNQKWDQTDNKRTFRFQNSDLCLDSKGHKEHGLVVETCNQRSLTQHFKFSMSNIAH

`CC(=O)N[C@H]1[C@@H](OP(=O)(O)OP(=O)(O)OC[C@H]2O[C@@H](n3ccc(=O)[nH]c3=O)[C@H](O)[C@@H]2O)O[C@H](CO)[C@H](O)[C@@H]1O` [UDP-GalNAc] was tested, and the “GalNAc transfer to peptide acceptors, radioactivity (dpm/3hr)” value was “GalNAc-T activity was observed for SpGalNAc-T1, SpGalNAc-T2, SpGalNAc-T7, SpGalNAc-T7-1, and SpGalNAc-T7-2”.
